A short description of series [1]: Stability in human serum assessed as parent compound remaining incubated at 24 hrs by RP-HPLC analysis. The series is classed as ADME, cell-free. The settings on record: human serum, read-out: Stability.
Series [2] addresses T1, Neuronal acetylcholine receptor; alpha9/alpha10 (Homo sapiens) (UniProt Q9UGM1+Q9GZZ6). Put plainly: Antagonist activity at human alpha9alpha10 nAChR expressed in acetylcholine-induced Xenopus laevis oocytes assessed as inhibition of acetylcholine-induced current at 10 nM at -80 mV holding potential incubated for 5 mins by two electrode voltage-clamp assay relative to control. The series is classed as cell-based. As to conditions: Oocyte.

The target of series [3] is T1, Neuronal acetylcholine receptor; alpha9/alpha10 (Homo sapiens). Put plainly: Antagonist activity at human alpha9alpha10 nAChR expressed in acetylcholine-induced Xenopus laevis oocytes assessed as inhibition of acetylcholine-induced current at 10 nM at -80 mV holding potential incubated for 5 mins by two electrode voltage-clamp assay. The series is classed as cell-based. As to conditions: Oocyte, filed as antagonist. (In general: Two-electrode voltage clamp is typically applied to oocytes expressing channels or transporters.)

SMILES strings stand for the structures. Active and inactive are the calls of the source. The rule behind the calls is not given here. Starred links: 1 amine or outer side, 2 acyl side, 3 side chain; linkers in the order of their positions; H or OH if unused. Positions of bridges follow the written chain, without caps; N, C: chain ends. Non-standard residues stand in square brackets, D forms with d. Residues, ends and D or L forms follow the SMILES beside them. Dap = NC[C@H](N)C(=O)O; CH2 = C([*:1])[*:2]

For `CC[C@H](C)[C@@H]1NC(=O)[C@H](CC(=O)O)NC(=O)[C@@H]2CCCN2C(=O)[C@H](CC(N)=O)NC(=O)[C@H](CC(N)=O)NC(=O)[C@H](C(C)C)NC(=O)[C@H](CO)NC(=O)[C@@H]2CSSC[C@@H]3NC(=O)CNC(=O)CNC(=O)[C@H](C)NC(=O)[C@H](C)NC(=O)CNC(=O)CNC(=O)[C@H](CSSC[C@H](NC3=O)C(=O)N[C@@H](CN)C(=O)N[C@@H](Cc3cnc[nH]3)C(=O)N3CCC[C@H]3C(=O)N[C@@H](C)C(=O)N2)NC1=O` (HELM PEPTIDE1{A.A.G.G.C.C.[NC[C@H](N[*:1])C(=O)[*:2]].H.P.A.C.S.V.N.N.P.D.I.C.G.G}$PEPTIDE1,PEPTIDE1,5:R3-11:R3|PEPTIDE1,PEPTIDE1,6:R3-19:R3|PEPTIDE1,PEPTIDE1,1:R1-21:R2$$$V2.0), the remaining at 24 h in series [1] was less than 40%. Further, the inhibition in series [2] was 20%.

On to `CC[C@H](C)[C@@H]1NC(=O)[C@H](CC(=O)O)NC(=O)[C@@H]2CCCN2C(=O)[C@H](CC(N)=O)NC(=O)[C@H](CC(N)=O)NC(=O)[C@H](C(C)C)NC(=O)[C@H](CO)NC(=O)[C@@H]2CSCSC[C@H](NC(=O)CN)C(=O)N[C@@H](CSCSC[C@@H](C(N)=O)NC1=O)C(=O)N[C@@H](CN)C(=O)N[C@@H](Cc1cnc[nH]1)C(=O)N1CCC[C@H]1C(=O)N[C@@H](C)C(=O)N2` (H-GCC[Dap]HPACSVNNPDIC-NH2; linker 2-8, 3-16 via CH2), for which, in series [3], the outcome was Active.

Consider `CC[C@H](C)[C@@H]1NC(=O)[C@H](CC(=O)O)NC(=O)[C@@H]2CCCN2C(=O)[C@H](CC(N)=O)NC(=O)[C@H](CC(N)=O)NC(=O)[C@H](C(C)C)NC(=O)[C@H](CO)NC(=O)[C@@H]2CSCSC[C@H](NC(=O)CN)C(=O)N[C@@H](CSSC[C@@H](C(N)=O)NC1=O)C(=O)N[C@@H](CN)C(=O)N[C@@H](Cc1cnc[nH]1)C(=O)N1CCC[C@H]1C(=O)N[C@@H](C)C(=O)N2` (HELM PEPTIDE1{G.C.C.[NC[C@H](N[*:1])C(=O)[*:2]].H.P.A.C.S.V.N.N.P.D.I.C.[am]}|CHEM1{[C([*:1])[*:2]]}$PEPTIDE1,CHEM1,2:R3-1:R1|PEPTIDE1,CHEM1,8:R3-1:R2|PEPTIDE1,PEPTIDE1,3:R3-16:R3$$$V2.0), for which the result in series [3] was Active.

Take `CC[C@H](C)[C@@H]1NC(=O)[C@H](CC(=O)O)NC(=O)[C@@H]2CCCN2C(=O)[C@H](CC(N)=O)NC(=O)[C@H](CC(N)=O)NC(=O)[C@H](C(C)C)NC(=O)[C@H](CO)NC(=O)[C@@H]2CSSC[C@@H]3NC(=O)CNC(=O)CNC(=O)[C@H](C)NC(=O)CNC(=O)[C@H](C)NC(=O)[C@H](C)NC(=O)CNC(=O)CNC(=O)[C@H](CSSC[C@H](NC3=O)C(=O)N[C@@H](CN)C(=O)N[C@@H](Cc3cnc[nH]3)C(=O)N3CCC[C@H]3C(=O)N[C@@H](C)C(=O)N2)NC1=O` (HELM PEPTIDE1{A.A.G.A.G.G.C.C.[NC[C@H](N[*:1])C(=O)[*:2]].H.P.A.C.S.V.N.N.P.D.I.C.G.G}$PEPTIDE1,PEPTIDE1,7:R3-13:R3|PEPTIDE1,PEPTIDE1,8:R3-21:R3|PEPTIDE1,PEPTIDE1,1:R1-23:R2$$$V2.0): the remaining at 24 h in series [1] was determined as 61.7%. For the same compound, in series [2] (filed as antagonist), the inhibition is more than 85%.

In the case of `CC[C@H](C)[C@@H]1NC(=O)[C@H](CC(=O)O)NC(=O)[C@@H]2CCCN2C(=O)[C@H](CC(N)=O)NC(=O)[C@H](CC(N)=O)NC(=O)[C@H](C(C)C)NC(=O)[C@H](CO)NC(=O)[C@@H]2CSSC[C@@H]3NC(=O)CNC(=O)[C@H](CCC(=O)O)NC(=O)CNC(=O)[C@H](CCC(=O)O)NC(=O)CNC(=O)[C@H](CCC(=O)O)NC(=O)CNC(=O)[C@H](CSSC[C@H](NC3=O)C(=O)N[C@@H](CN)C(=O)N[C@@H](Cc3cnc[nH]3)C(=O)N3CCC[C@H]3C(=O)N[C@@H](C)C(=O)N2)NC1=O` (HELM PEPTIDE1{A.C.S.V.N.N.P.D.I.C.G.E.G.E.G.E.G.C.C.[NC[C@H](N[*:1])C(=O)[*:2]].H.P}$PEPTIDE1,PEPTIDE1,2:R3-18:R3|PEPTIDE1,PEPTIDE1,10:R3-19:R3|PEPTIDE1,PEPTIDE1,1:R1-22:R2$$$V2.0), in series [1], the remaining at 24 h came to 57.3%. Moreover, the inhibition in series [2] amounted to 20%.

As for `CC[C@H](C)[C@@H]1NC(=O)[C@H](CC(=O)O)NC(=O)[C@@H]2CCCN2C(=O)[C@H](CC(N)=O)NC(=O)[C@H](CC(N)=O)NC(=O)[C@H](C(C)C)NC(=O)[C@H](CO)NC(=O)[C@@H]2CSSC[C@@H]3NC(=O)CNC(=O)[C@@H](N)CNC(=O)CC[C@@H](C(N)=O)NC(=O)[C@H](CSSC[C@H](NC3=O)C(=O)N[C@@H](CN)C(=O)N[C@@H](Cc3cnc[nH]3)C(=O)N3CCC[C@H]3C(=O)N[C@@H](C)C(=O)N2)NC1=O` (HELM PEPTIDE1{[N[C@@H](CN[*:3])C(=O)[*:2]].G.C.C.[NC[C@H](N[*:1])C(=O)[*:2]].H.P.A.C.S.V.N.N.P.D.I.C.E.[am]}$PEPTIDE1,PEPTIDE1,1:R3-18:R3|PEPTIDE1,PEPTIDE1,3:R3-9:R3|PEPTIDE1,PEPTIDE1,4:R3-17:R3$$$V2.0), the remaining at 24 h in series [1] was 57.3%. The inhibition in series [2] was less than 5%.

For `CC.CC[C@H](C)[C@@H]1NC(=O)[C@H](CC(=O)O)NC(=O)[C@@H]2CCCN2C(=O)[C@H](CC(N)=O)NC(=O)[C@H](CC(N)=O)NC(=O)[C@H](C(C)C)NC(=O)[C@H](CO)NC(=O)[C@@H]2CSSC[C@H](NC(=O)CN)C(=O)N[C@@H](CSCSC[C@@H](C(N)=O)NC1=O)C(=O)N[C@@H](CN)C(=O)N[C@@H](Cc1cnc[nH]1)C(=O)N1CCC[C@H]1C(=O)N[C@@H](C)C(=O)N2` (HELM PEPTIDE1{G.C.C.[NC[C@H](N[*:1])C(=O)[*:2]].H.P.A.C.S.V.N.N.P.D.I.C.[am]}|CHEM1{[C([*:1])[*:2]]}$PEPTIDE1,PEPTIDE1,2:R3-8:R3|PEPTIDE1,CHEM1,3:R3-1:R1|PEPTIDE1,CHEM1,16:R3-1:R2$$$V2.0), the result in series [3] was Active.

Regarding `CC[C@H](C)[C@@H]1NC(=O)[C@H](CC(=O)O)NC(=O)[C@@H]2CCCN2C(=O)[C@H](CC(N)=O)NC(=O)[C@H](CC(N)=O)NC(=O)[C@H](C(C)C)NC(=O)[C@H](CO)NC(=O)[C@@H]2CSSC[C@@H]3NC(=O)CNC(=O)[C@@H](N)CCCCNC(=O)CC[C@@H](C(N)=O)NC(=O)[C@H](CSSC[C@H](NC3=O)C(=O)N[C@@H](CN)C(=O)N[C@@H](Cc3cnc[nH]3)C(=O)N3CCC[C@H]3C(=O)N[C@@H](C)C(=O)N2)NC1=O` (HELM PEPTIDE1{K.G.C.C.[NC[C@H](N[*:1])C(=O)[*:2]].H.P.A.C.S.V.N.N.P.D.I.C.E.[am]}$PEPTIDE1,PEPTIDE1,1:R3-18:R3|PEPTIDE1,PEPTIDE1,3:R3-9:R3|PEPTIDE1,PEPTIDE1,4:R3-17:R3$$$V2.0), in series [1], the remaining at 24 h was found to be 57.3%. Besides, the inhibition in series [2] was less than 40%.

`CC[C@H](C)[C@@H]1NC(=O)[C@H](CC(=O)O)NC(=O)[C@@H]2CCCN2C(=O)[C@H](CC(N)=O)NC(=O)[C@H](CC(N)=O)NC(=O)[C@H](C(C)C)NC(=O)[C@H](CO)NC(=O)[C@@H]2CSSC[C@@H]3NC(=O)CNC(=O)[C@@H](N)CNC(=O)C[C@@H](C(N)=O)NC(=O)[C@H](CSSC[C@H](NC3=O)C(=O)N[C@@H](CN)C(=O)N[C@@H](Cc3cnc[nH]3)C(=O)N3CCC[C@H]3C(=O)N[C@@H](C)C(=O)N2)NC1=O` (HELM PEPTIDE1{[N[C@@H](CN[*:3])C(=O)[*:2]].G.C.C.[NC[C@H](N[*:1])C(=O)[*:2]].H.P.A.C.S.V.N.N.P.D.I.C.D.[am]}$PEPTIDE1,PEPTIDE1,1:R3-18:R3|PEPTIDE1,PEPTIDE1,3:R3-9:R3|PEPTIDE1,PEPTIDE1,4:R3-17:R3$$$V2.0): in series [1], the remaining at 24 h came to 57.3%. In series [2], the inhibition is less than 5%.

In the case of `CC[C@H](C)[C@@H]1NC(=O)[C@H](CC(=O)O)NC(=O)[C@@H]2CCCN2C(=O)[C@H](CC(N)=O)NC(=O)[C@H](CC(N)=O)NC(=O)[C@H](C(C)C)NC(=O)[C@H](CO)NC(=O)[C@@H]2CSSC[C@H](NC(=O)CN)C(=O)N[C@@H](CNC(=O)C[C@@H](C(N)=O)NC1=O)C(=O)N[C@@H](CN)C(=O)N[C@@H](Cc1cnc[nH]1)C(=O)N1CCC[C@H]1C(=O)N[C@@H](C)C(=O)N2` (HELM PEPTIDE1{G.C.[O=C([C@H](CN[*:3])N[*:1])[*:2]].[NC[C@H](N[*:1])C(=O)[*:2]].H.P.A.C.S.V.N.N.P.D.I.D.[am]}$PEPTIDE1,PEPTIDE1,2:R3-8:R3|PEPTIDE1,PEPTIDE1,3:R3-16:R3$$$V2.0), the remaining at 24 h in series [1] was 57.3%. For the same compound, the inhibition in series [2] is less than 5%.

Turning to `CC[C@H](C)[C@@H]1NC(=O)[C@H](CC(=O)O)NC(=O)[C@@H]2CCCN2C(=O)[C@H](CC(N)=O)NC(=O)[C@H](CC(N)=O)NC(=O)[C@H](C(C)C)NC(=O)[C@H](CO)NC(=O)[C@@H]2CSSC[C@@H]3NC(=O)CNC(=O)[C@H](CN)NC(=O)CNC(=O)[C@H](CN)NC(=O)CNC(=O)[C@H](CN)NC(=O)CNC(=O)[C@H](CSSC[C@H](NC3=O)C(=O)N[C@@H](CN)C(=O)N[C@@H](Cc3cnc[nH]3)C(=O)N3CCC[C@H]3C(=O)N[C@@H](C)C(=O)N2)NC1=O` (cyclo(ACSVNNPDICG[Dap]G[Dap]G[Dap]GCC[Dap]HP); disulfide 2-18, 10-19), in series [3], the result was Active. Moreover, the remaining at 24 h in series [1] came to 85.2%.

As for `CC[C@H](C)[C@@H]1NC(=O)[C@H](CC(=O)O)NC(=O)[C@@H]2CCCN2C(=O)[C@H](CC(N)=O)NC(=O)[C@H](CC(N)=O)NC(=O)[C@H](C(C)C)NC(=O)[C@H](CO)NC(=O)[C@@H]2CSSC[C@@H]3NC(=O)CNC(=O)CNC(=O)[C@H](C)NC(=O)[C@H](C)NC(=O)CNC(=O)[C@H](CSSC[C@H](NC3=O)C(=O)N[C@@H](CN)C(=O)N[C@@H](Cc3cnc[nH]3)C(=O)N3CCC[C@H]3C(=O)N[C@@H](C)C(=O)N2)NC1=O` (HELM PEPTIDE1{A.A.G.G.C.C.[NC[C@H](N[*:1])C(=O)[*:2]].H.P.A.C.S.V.N.N.P.D.I.C.G}$PEPTIDE1,PEPTIDE1,5:R3-11:R3|PEPTIDE1,PEPTIDE1,6:R3-19:R3|PEPTIDE1,PEPTIDE1,1:R1-20:R2$$$V2.0), the remaining at 24 h in series [1] is less than 40%. For the same compound, in series [2], the inhibition is less than 10%.

For orientation: inhibition means the drop in the measured response relative to a control, in per cent.

The values above are taken from ChEMBL document CHEMBL6074659, “Development of an Intravenously Stable Disulfide-Rich Peptide for the Treatment of Chemotherapy-Induced Neuropathic Pain” (J Med Chem, 2024).
